From US9725454B2, “Crystalline forms of ponatinib hydrochloride” (SANDOZ AG, priority 2013, dated 2017)
Counter-ions that a name gives are not always drawn.

Experiments:
[1] = Storage stability, chemical purity by HPLC; format: physicochemical; conditions: conclusion from the stability studies
Method: (§1) To determine concentration, solutions were diluted in methanol; to determine purity, 2.7 mg material was dissolved in 1 mL methanol. The conditions listed below were then used. • Instrument: Agilent 1100 • Column: Waters Symmetry C18 5μ 150×3.9 mm column • Column Temperature: 25° C. • Autosampler Temperature: Not controlled • UV wavelength: 254 nm • Injection Volume: 3 μL • Flow Rate: 1.2 mL/min • Mobile Phase A: 0.01% formic acid in water • Mobile Phase B: 0.01% formic acid in ACN • Gradient program: […]
In order to assess physical and chemical stability, Ponatinib HCl crystal form 1 obtained by direct crystallization according to example 4, and the crystalline ponatinib HCl Form 1 which was obtained via Form 8 according to example 7, were stored at 25° C./60%RH and 40° C./75% RH. After 1 week, the three samples were analysed by XRPD and HPLC (chemical purity).

[2] = Aqueous solubility by HPLC analysis; format: physicochemical; conditions: water, thermodynamic from solid
Method: as §1
A filtered solution of ponatinib HCl in acetonitrile/water (1:1) was allowed to slowly evaporate at ambient temperature. A hydrated crystal form 8 showing characteristic peaks at 6.21 and 10.5 2Theta was found. Approximately 11.4% water content was found by KF analysis. […] (peak at 90° C.).
A filtered solution of ponatinib HCl in acetone/water (1:1) was allowed to slowly evaporate. A hydrated crystal form 8 showing characteristic peaks at 6.21 and 10.5 2Theta was found. Approximately 11.4% water content was found by KF analysis. […] (peak at 90° C.).
Ponatinib HCl form 1 was slurried in water for 24 h at 22° C. A hydrated crystal form 8 showing characteristic peaks at 6.21 and 10.5 2Theta was found. Approximately 11.4% water content was found by KF analysis. […] (peak at 90° C.).

| SMILES | chemical stability compared with form 1 obtained by direct crystallization [1] | solubility [2] [mg/mL] |
| --- | --- | --- |
| Cc1ccc(C(=O)Nc2ccc(CN3CCN(C)CC3)c(C(F)(F)F)c2)cc1C#Cc1cnc2cccnn12 [Form 1 via form 8, ponatinib hydrochloride] | higher chemical stability |  |
| Cc1ccc(C(=O)Nc2ccc(CN3CCN(C)CC3)c(C(F)(F)F)c2)cc1C#Cc1cnc2cccnn12 [Form 8, ponatinib hydrochloride] |  | 0.62 |
